Experimental data taken from patent publication US6573263B2, “Substituted imidazotriazinones” (Bayer Aktiengesellschaft, priority 2000, dated 2003).
Blank lines part the entries; values can stand above or below the compound they belong to.

Tests used:
[1] = system: rats; assay: Object recognition test (memory test); type: in vivo; conditions: rat, dose of 1.0 mg/kg of body weight p.o., 24 hours interval
Experimental: The object recognition test is a memory test. It measures the ability of rats (and mice) to differentiate between known and unknown objects and is therefore suitable for the determination of the memory-improving action of the compounds according to the invention.
The test is carried out as described (Blokland et al. NeuroReport 1998, 9, 4205-4208; Ennaceur, A., Delacour, J., Behav. Brain Res. 1988, 31, 47-59; Ennaceur, A., Meliani, K., Psychopharmacology 1992, 109, 321-330; Prickaerts, et al. Eur. J. Pharmacol. 1997, 337, 125-136).
In a first passage, a rat in an otherwise empty relatively large observation arena is confronted with two identical objects. The rat will extensively examine, i.e. sniff and touch, both objects. In a second passage, after an interval of 24 hours, the rat is again tested in the observation arena. One of the known objects is now replaced by a new, unknown object. When a rat recognizes the known object, it will especially examine the unknown object. After 24 hours, a rat, however, has normally forgotten which object it has already examined in the first passage, and will therefore inspect both objects equally intensively. The administration of a substance having learning- and memory-improving action will lead to a rat recognizing the object already seen 24 hours beforehand, in the first passage, as known. […]

[2] = target: T1, PDE 2 (UniProt P14099); assay: Measurement of the PDE inhibition (PDE 2, [3H]-cAMP substrate, cGMP prestimulation); type: biochemical, porcine or bovine; conditions: cGMP-stimulated PDE 2
T1 sequence (P14099 1-921): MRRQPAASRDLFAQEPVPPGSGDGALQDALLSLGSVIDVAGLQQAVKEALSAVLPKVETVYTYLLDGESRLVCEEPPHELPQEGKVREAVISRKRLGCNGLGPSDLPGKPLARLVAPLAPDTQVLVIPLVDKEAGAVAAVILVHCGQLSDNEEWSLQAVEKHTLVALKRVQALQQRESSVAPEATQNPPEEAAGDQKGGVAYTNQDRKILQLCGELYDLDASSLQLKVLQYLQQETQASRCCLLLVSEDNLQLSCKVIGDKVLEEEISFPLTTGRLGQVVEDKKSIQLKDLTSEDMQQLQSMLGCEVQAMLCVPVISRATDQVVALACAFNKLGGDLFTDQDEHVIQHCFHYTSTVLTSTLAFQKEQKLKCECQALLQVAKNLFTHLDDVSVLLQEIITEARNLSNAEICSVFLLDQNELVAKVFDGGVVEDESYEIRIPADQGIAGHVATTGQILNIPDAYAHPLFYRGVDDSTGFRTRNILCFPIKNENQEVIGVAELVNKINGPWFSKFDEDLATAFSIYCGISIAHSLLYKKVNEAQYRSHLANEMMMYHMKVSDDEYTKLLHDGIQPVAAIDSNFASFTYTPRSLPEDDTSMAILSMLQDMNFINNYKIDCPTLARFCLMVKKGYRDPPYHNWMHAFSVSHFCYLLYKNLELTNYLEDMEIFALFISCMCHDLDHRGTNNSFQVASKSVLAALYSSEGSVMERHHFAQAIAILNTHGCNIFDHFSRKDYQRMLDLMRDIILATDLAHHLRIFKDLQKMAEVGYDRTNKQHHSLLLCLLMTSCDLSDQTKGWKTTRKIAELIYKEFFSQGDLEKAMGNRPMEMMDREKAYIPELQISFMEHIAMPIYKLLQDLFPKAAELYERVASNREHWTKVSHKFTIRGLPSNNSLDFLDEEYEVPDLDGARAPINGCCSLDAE
Experimental: The cGMP-stimulable PDE (PDE 2), the cGMP-inhibitable PDE (PDE 3) and the cAMP-specific PDE (PDE 4) were isolated either from porcine or bovine heart myocardium. The Ca^2+ calmodulin-stimulable PDE 1 was isolated from porcine aorta, porcine brain or preferably from bovine aorta. The cGMP-specific PDE (PDE 5) was preferably obtained from porcine small intestine, porcine aorta, human blood platelets and preferably from bovine aorta. Purification was carried out by anion exchange chromatography on mono Q^R Pharmacia essentially according to the method of Hoey, M; Houslay, M. D., Biochem. Pharmacol. 1990, 40, 193-202 and Lugman et al. Biochem. Pharmacol. 1986, 35, 1743-1751.
The enzyme activity was determined in a test batch of 100 μl in 20 mM tris/HCl buffer pH 7.5 which contains 5 mM MgCl2, 0.1 mg/ml of bovine serum albumin and either 800 Bq of [^3H]-cAMP or [^3H]-cGMP. […] 100 μl of the reaction batch are separated on the HPLC and the cleavage products are determined quantitatively online using a flow-through scintillation counter. The substance concentration at which the reaction rate is decreased by 50% is measured. […]
Test substances were dissolved in 100% DMSO (10 mM), and this solution was further diluted with H2O (highest final concentration in the test: 10 μM). […] After the beads had settled (about 15 min), the plate was measured in a beta counter.

[3] = system: intracellular neuronal cGMP concentration in primary rat brain cell cultures; assay: Measurement of the increase in the intracellular neuronal cGMP concentration in cell cultures (SNP prestimulation); type: cell-based; conditions: parallel incubation of neurons with SNP, 37° C., 20 min
Source text: PDE 2 inhibitors increase the intracellular neuronal cGMP concentration after prestimulation of the guanylate cyclase using 10^−4 M sodium nitroprusside (SNP) in primary rat brain cell cultures.
Rat embryos were decapitated and the heads were transferred to preparation dishes. The scalp and cranium were removed, and the exposed brains were transferred to a further Petri dish. With the aid of a binocular microscope and two pairs of forceps, hippocampi were isolated from the cortex and cooled to 4° C. using ice. This preparation and the isolation of the hippocampal neurons were then carried out according to a standard protocol using the papain dissociation system (Worthington Biochemical Corporation, Lakewood, N.J. 08701, USA) (Huettner et al. J. Neurosci. 1986, 6, 3044-3060). The mechanically isolated neurons were cultured under standard conditions (37° C., 5% CO2) to 150,000 cells/hole in 200 μl of neurobasal medium/hole (neurobasal; Gibco/BRL; 2 mM L-glutamine; in the presence of penicillin/streptomycin) for 7 days in 96-hole plates (pretreated with poly-D-lysine 100 μg/ml for 20 min). After 7 days, the medium was removed and the cells were washed with HBS buffer (Gibco/BRL). […] The cells were then lysed in 200 μl of lysis buffer (cGMP kit code RPN 226; from Amersham Pharmacia Biotech.) and the cGMP concentration was measured according to the instructions of the manufacturer. […]

SMILES: COc1ccc(Cc2nn3c([C@@H](CCCc4ccccc4)[C@@H](C)O)nc(C)c3c(=O)[nH]2)cc1OC (single isomer, unassigned) [Example 16]
effect in the object recognition test [1]: shows an effect

IC50 [2]: 10 nM
melting point: 138 °C
SMILES: COc1ccc(Cc2nn3c(C(CCCc4ccccc4)C(C)=O)nc(C)c3c(=O)[nH]2)cc1 (stereo not shown) [Example 2, 7-(1-Acetyl-4-phenylbutyl)-2-(4-methoxybenzyl)-5-methylimidazo[5,1-f][1,2,4]triazin-4(3H)-one]

SMILES: COc1ccc(Cc2nn3c(C(CCCc4ccccc4)C(C)O)nc(C)c3c(=O)[nH]2)cc1OC (stereo not shown) [Example 15, 2-(3,4-Dimethoxybenzyl)-7-[1-(1-hydroxyethyl)-4-phenylbutyl]-5-methylimidazo-[5,1-f][1,2,4]triazin-4(3H)-one]
concentration from which a marked increase in the intracellular cGMP level was seen [3]: ≥ 100 nM
